Measurements published in PubChem BioAssay (NCI).
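Compound exposure: 48 hours, 5 concentrations, 96-well plates. Definition used: TGI = concentration required for complete inhibition of growth.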

What was measured:
Test in all cases: growth of human tumour cells (NCI), 48 h
HOP-92 NSCLC = system: HOP-92 NSCLC
OVCAR-4 ovarian = system: OVCAR-4 ovarian
NCI-H23 lung = system: NCI-H23 lung
SW-620 colon = system: SW-620 colon
786-0 renal = system: 786-0 renal
HOP-62 NSCLC = system: HOP-62 NSCLC
NCI-H460 lung = system: NCI-H460 lung
SK-MEL-28 melanoma = system: SK-MEL-28 melanoma
UO-31 renal = system: UO-31 renal
RXF 393 renal = system: RXF 393 renal
A498 renal = system: A498 renal
HS 578T breast = system: HS 578T breast
MCF7 breast = system: MCF7 breast
DU-145 prostate = system: DU-145 prostate

Compound	TGI (HOP-92 NSCLC) [µM]	TGI (OVCAR-4 ovarian) [µM]	TGI (NCI-H23 lung) [µM]	TGI (SW-620 colon) [µM]	TGI (786-0 renal) [µM]	TGI (HOP-62 NSCLC) [µM]	TGI (NCI-H460 lung) [µM]	TGI (SK-MEL-28 melanoma) [µM]	TGI (UO-31 renal) [µM]	TGI (RXF 393 renal) [µM]	TGI (A498 renal) [µM]	TGI (HS 578T breast) [µM]	TGI (MCF7 breast) [µM]	TGI (DU-145 prostate) [µM]
NC1=NS(=O)(=O)Nc2nc(-c3ccc(Cl)cc3)c(-c3ccc(Cl)cc3)nc21	> 100	> 100	> 100	> 100	> 100	> 100	> 100	> 100	> 100	> 100				
CCCCCCCCCCCCCCCCCC(=O)O[C@H](COC(=O)CCCCCCCCCCC)COC(=O)CCCCCCCCCCCCCCC	> 100	> 100	> 100	> 100	> 100	> 100	> 100	> 100	> 100		> 100			
COC(=O)N/N=C(\C)C(CN1CCCCC1)C(C1=C(O)c2ccccc2OC1)c1ccccc1 (configuration not stated)		> 100	> 100	> 100	> 100	> 100	> 100	> 100	> 100	> 100	> 100			
COc1cc(C)c2c(c1C)OC(=O)c1c(C)c(Cl)c(O)c(C=O)c1O2			32	> 100	24.6	47	40.3		76		33.2			
CN(NC(=O)c1cccs1)C1=NCCCN1	> 100	> 100	> 100	> 100	> 100	> 100	> 100	> 100	> 100	> 100	> 100	> 100	> 100	
CC1Cn2c(nc3ccccc32)NC1=O (configuration not stated)	> 100	> 100	> 100	> 100	> 100	> 100	> 100		> 100	> 100	> 100	> 100	> 100	
C/C=C/C(O)P1(=O)N(Cc2ccccc2)[C@@H]2CCCC[C@H]2N1Cc1ccccc1 (some centres not stated)		> 25	> 25	> 25	> 25	> 25	> 25	> 25	> 25	> 25		> 25	> 25	> 25
CNC(=O)Oc1ccc(-c2cn3cc(OC(=O)NC)ccc3n2)cc1	> 100	> 100	> 100	> 100	> 100	> 100	> 100	> 100	> 100	> 100	> 100		> 100	> 100
Cc1cc(C)[n+](CCOc2ccc(/C(=C(/Cl)c3ccccc3)c3ccccc3)cc2)c(C)c1	2.7	13.5	6.94	11.1	8.35	9.06	8.18	3.58	35.7	7.77	30.2			
Cc1ccc2c(c1)[nH]c1cc(C(F)(F)F)ccc1[p+]2=O (configuration not stated)	54.5	79.2	> 100	> 100	> 100	> 100	> 100	> 100		> 100	74.5		> 100	> 100
O=C(CSc1nnc(Cc2ccccc2)o1)Nc1ccc([N+](=O)[O-])cc1		> 100	> 100		> 100	> 100	> 100	> 100	> 100	> 100	> 100			
CCCC(C)NC1=C(NC(C)=O)C(=O)c2ccccc2C1=O (configuration not stated)	> 100	> 100	> 100	> 100	> 100	> 100	> 100	> 100	> 100	> 100				
C[C@H](N)C(=O)Nc1ccc(-c2nc3ccccc3s2)cc1	95.3	36.6	> 100	31	29.1	72.9	34.8	32.5	28.4	> 100	90	> 100		38.5
Cc1ccn2c(=O)cc(-c3ccccc3)nc2c1	> 100	> 100	> 100	> 100	> 100	> 100	> 100	> 100		> 100		> 100	> 100	> 100
O=C1OC2(OC2c2ccccc2)c2ccccc21 (configuration not stated)	> 100		> 100	> 100	> 100	> 100	> 100	> 100	> 100	> 100				
Oc1cc(C2OCCCO2)cc(O)c1O		> 100	> 100	> 100	> 100	> 100	> 100	> 100	> 100		> 100			
Cc1cn(C(Cc2ccccc2)OCCO)c(=O)[nH]c1=O (configuration not stated)	> 100	> 100	> 100	> 100	> 100	> 100	> 100	> 100	> 100	> 100	> 100		> 100	> 100
CC(=O)Nc1cc2c(s1)CCC1CC(=O)NN=C21 (configuration not stated)		> 100	> 100	> 100	> 100	> 100	> 100	> 100	> 100	> 100				
NC(=O)NNC(=O)c1nc[nH]c1[N+](=O)[O-]		> 100	> 100	> 100	> 100	> 100	> 100	> 100	> 100	> 100	> 100	> 100	> 100	> 100
